Experiment [1] addresses T1, Recombinant human Cbl-b (aa 36-427) (Homo sapiens, UniProt Q13191).
T1 construct: Recombinant human Cbl-b (aa 36-427) was expressed in E coli; biotin (biotinylated in vitro); made in house; host or cells: E. coli
Put plainly: Cbl-b Biochemical Assay (TR-FRET). Conditions: 6 nM Cbl-b, 1-2.5 nM Src-Zap70, 0.5 mM ATP; HTRF signal at 520 nm. Here is the method: Cbl-b Biochemical Assay (TR-FRET)
Recombinant human Cbl-b (aa 36-427) was expressed in E coli, purified and biotinylated in vitro. The protein was diluted to 12 nM in freshly prepared assay buffer consisting of 50 mM HEPES, pH 7.0, 100 mM NaCl, 5 mM MgCl2, 0.01% Triton-X 100, 0.01% BSA and 1 mM DTT. Recombinant human Src (aa 254-536)-GSSGSS-Zap-70 (aa 281-297) fusion protein was expressed in E coli and purified. Protein was diluted in assay buffer to 2-5 nM and supplemented with ATP to 1 mM. Fluorescein-BODIPY labeled UBED2D(C85K)-Ub was prepared by conjugating ubiquitin (Ub) labeled at its N-terminus with Fluorescein-BODIPY maleimide (ThermoFisher Catalog no B10250) to E coli expressed and purified UBED2D(C85K) [see Dou et al Nature Structural and Molecular Biology 8: 982-987, 2013]. Recombinant human UBE2D2(C85K) was expressed in E coli, purified and ubiquitinated and Bodipy labelled in vitro. Protein was diluted to 200 nM in assay buffer without MgCl2 (or Cisbio PPI buffer). Streptavidin-Terbium was added to 2 nM and EDTA to 10 mM, to provide a binding assay mix. Compounds were dissolved in DMSO and diluted to prepare a ten-point dilution series. 100 nl of each compound concentration was dispensed in duplicate in a 384 well black assay plate using acoustic dispensing. Wells for maximum signal controls received 100 nl of DMSO only and wells for minimum signal controls received 100 nl of a reference inhibitor compound at a final assay concentration of 100 mM to produce 100% inhibition. 5 μl of diluted Cbl-b enzyme was added to all wells of the assay plate and incubated at RT for 30-60 min. The enzyme assay was initiated by addition of 5 μl of Src-Zap/ATP mix to all wells, and the plate incubated at RT for 60 min. The enzyme reaction was terminated and the binding reaction was initiated by adding 10p of binding assay mix to all wells and incubating the plate at RT for 60 min prior to assay read. Final assay conditions consisted of 6 nM Cbl-b, 1-2.5 nM Src-Zap70, 0.5 mM ATP, 1% (v/v) DMSO (enzyme reaction) and 100 nM UBE2D2(C85K)-Ub-FL-BODIPY, 5 mM EDTA, 1 nM Streptavidin-Tb (binding reaction). The HTRF assay signal was measured at 520 nm on an Envision plate reader, with reference signal at 485 or 620 nm. Data was normalized using maximum and minimum assay controls: % Inhibition=100−(100*((maximum control)−unknown)/(maximum control−minimum control)). A 4-parameter dose-response equation was used to fit the normalized dose-response data and derive an IC50 for test compounds.
A general note: In TR-FRET formats the signal depends on donor and acceptor labels being close together.

Experiment [2] concerns Recombinant human c-Cbl (aa 47-435). Put plainly: c-Cbl Biochemical Assay (TR-FRET). As to conditions: ratio from the Cbl-b and c-Cbl TR-FRET biochemical assays. Here is the method:
c-Cbl Biochemical Assay (TR-FRET)
Recombinant human c-Cbl (aa 47-435) was expressed in E coli, purified and biotinylated in vitro. The protein was diluted to 12 nM in freshly prepared assay buffer consisting of 50 mM HEPES, pH 7.0, 100 mM NaCl, 5 mM MgCl2, 0.01% Triton-X 100, 0.01% BSA and 1 mM DTT. Recombinant human Src (aa 254-536)-GSSGSS-Zap-70 (aa 281-297) fusion protein was expressed in E coli and purified. Protein was diluted in assay buffer to 5-20 nM and ATP was added to 1 mM. Recombinant human UBE2D2(C85K) was expressed in E coli, purified and ubiquitinated and Bodipy labelled in vitro. Protein was diluted to 200 nM in assay buffer without MgCl2 (or Cisbio PPI buffer). Streptavidin-Terbium was added to 2 nM and EDTA to 10 mM, to provide a binding assay mix. Compounds were dissolved in DMSO and diluted to prepare a ten-point half log dilution series. 100 nl of each compound concentration was dispensed in duplicate in a 384 well black assay plate using acoustic dispensing. Wells for maximum signal controls received 100 nl of DMSO only and wells for minimum controls received 100 nl of a reference inhibitor compound at a final assay concentration of 100 mM to produce 100% inhibition. 5 μl of diluted c-Cbl enzyme was added to all wells of the assay plate and incubated at RT for 30 min. The enzyme assay was initiated by addition of 5 d of Src-Zap/ATP mix to all wells, and the plate incubated at RT for 60-90 min. The enzyme reaction was terminated and the binding reaction was initiated by adding 10p of binding assay mix to all wells and incubating the plate at RT for 60 min prior to assay read. Final assay conditions consisted of 6 nM c-Cbl. 2.5-10 nM Src-Zap70, 0.5 mM ATP. 1% (v/v) DMSO (enzyme reaction) and 100 nM UBE2D2(C85K)-Ub-FL-BODIPY, 5 mM EDTA, 1 nM Streptavidin-Tb (binding reaction). The HTRF assay signal was measured at 520 nm on an Envision plate reader, with reference signal at 485 or 620 nm. Data was normalized using maximum and minimum assay controls: % Inhibition=100−(100*((maximum control)−unknown)/(maximum control−minimum control)). A 4-parameter dose-response equation was used to fit the normalized dose-response data and derive an IC50 for test compounds.

T1 sequence (Q13191 36-427): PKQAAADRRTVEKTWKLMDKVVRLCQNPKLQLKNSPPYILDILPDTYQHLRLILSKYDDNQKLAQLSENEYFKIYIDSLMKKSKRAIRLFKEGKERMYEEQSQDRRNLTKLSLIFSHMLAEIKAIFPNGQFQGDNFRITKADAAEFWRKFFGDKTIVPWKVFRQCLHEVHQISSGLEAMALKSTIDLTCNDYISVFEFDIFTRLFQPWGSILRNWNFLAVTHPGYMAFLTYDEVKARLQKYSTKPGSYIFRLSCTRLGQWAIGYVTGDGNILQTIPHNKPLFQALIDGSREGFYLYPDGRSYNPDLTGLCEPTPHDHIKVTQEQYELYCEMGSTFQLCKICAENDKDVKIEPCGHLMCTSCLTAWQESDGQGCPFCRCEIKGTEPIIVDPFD

With `C[C@H]1CCCN(Cc2cc(C(F)(F)F)c3oc(-c4cccc([C@H](c5nncn5C)C5COC5)c4)nc3c2)C1` [I-52], the IC50 in experiment [1] was 0.2 to 5 µM. The “Cbl-b/c-Cbl Selectivity” value in experiment [2] was 7.

In the case of `C[C@H]1CCCN(Cc2cc(C(F)(F)F)c3oc(-c4cccc([C@@H](c5nncn5C)C5COC5)c4)nc3c2)C1` [I-53], in experiment [1], the IC50 was over 5 µM. For the same molecule, the “Cbl-b/c-Cbl Selectivity” value in experiment [2] was found to be 1.

As to `Cn1cnnc1-c1ccc(C(F)(F)F)cc1-c1cc(NCCCC#N)nc(-c2nc3cc(CNCC4CC4)cc(C(F)(F)F)c3o2)c1` [I-54, 4-{[6-(5-{[(cyclopropylmethyl)amino]methyl}-7-(trifluoromethyl)-1,3-benzoxazol-2-yl)-4-[2-(4-methyl-1,2,4-triazol-3-yl)-5-(trifluoromethyl)phenyl]pyridin-2-yl]amino}butanenitrile; formic acid], the IC50 in experiment [1] is over 5 µM. For the same molecule, in experiment [2], the “Cbl-b/c-Cbl Selectivity” value is reported as 7.

In the case of `Cn1cnnc1-c1ccccc1-c1cc(NCCCC#N)nc(-c2nc3cc(CNCC(C)(C)O)cc(C(F)(F)F)c3o2)c1` [I-55, 4-((6-(5-(((2-Hydroxy-2-methylpropyl)amino)methyl)-7-(trifluoromethyl)benzo[d]oxazol-2-yl)-4-(2-(4-methyl-4H-1,2,4-triazol-3-yl)phenyl)pyridin-2-yl)amino)butanenitrile], in experiment [1], the IC50 was under 0.2 µM. In addition, in experiment [2], the “Cbl-b/c-Cbl Selectivity” value is 11.

`C[C@H]1CCCN(Cc2cc(C(F)(F)F)c3oc(-c4cccc([C@@H](c5nncn5C)[C@H]5C[C@@H](C(F)(F)F)C5)c4)nc3c2)C1` [I-56]: the IC50 in experiment [1] is over 5 µM. Moreover, the “Cbl-b/c-Cbl Selectivity” value in experiment [2] is recorded as 5.

`C[C@H]1CCCN(Cc2cc(C(F)(F)F)c3oc(-c4cccc([C@H](c5nncn5C)[C@H]5C[C@H](C(F)(F)F)C5)c4)nc3c2)C1` [I-57]: the IC50 in experiment [1] is over 5 µM. Also, in experiment [2], the “Cbl-b/c-Cbl Selectivity” value is 2.

Regarding `C[C@H]1CCCN(Cc2cc(C(F)(F)F)c3oc(-c4cccc([C@@H](c5nncn5C)[C@H]5C[C@H](C(F)(F)F)C5)c4)nc3c2)C1` [I-58], the IC50 in experiment [1] was over 5 µM. In experiment [2], the “Cbl-b/c-Cbl Selectivity” value was 4.

As to `Cn1cnnc1[C@H](c1cccc(-c2nc3cc(CN4CCC5(CCC5)C4)cc(C(F)(F)F)c3o2)c1)[C@H]1C[C@@H](C(F)(F)F)C1` [I-60], in experiment [1], the IC50 was over 5 µM. Moreover, the “Cbl-b/c-Cbl Selectivity” value in experiment [2] is 1.

Turning to `Cn1cnnc1[C@H](c1cccc(-c2nc3cc(CN4CCC5(CCC5)C4)cc(C(F)(F)F)c3o2)c1)[C@H]1C[C@H](C(F)(F)F)C1` [I-62], the IC50 in experiment [1] is over 5 µM. Also, the “Cbl-b/c-Cbl Selectivity” value in experiment [2] came out at 2.

As for `Cn1cnnc1[C@@H](c1cccc(-c2nc3cc(CN4CCC5(CCC5)C4)cc(C(F)(F)F)c3o2)c1)[C@H]1C[C@@H](C(F)(F)F)C1` [I-63], the IC50 in experiment [1] lay within 0.2 to 5 µM. In addition, in experiment [2], the “Cbl-b/c-Cbl Selectivity” value stood at 13.

The term IC50 denotes the point on the concentration scale where inhibition reaches its midpoint.

(Values after patent US20260209222A1, “CBL-B MODULATORS AND USES THEREOF” (Nimbus Clio, Inc., priority 2022, published 2026).)
